Literature values, collected in US9090606B2, “Compounds” (CHIESI FARMACEUTICI S.p.A., priority 2012, dated 2015).

Columns and labels:
[1] = test system: smoking model of COPD in mice
[2] = patients with severe disease, frequent exacerbations and mucus hypersecretion

**Q.** Which results are given for `O=C(Nc1c(Cl)cncc1Cl)c1ccc(OC(F)F)c(OCC2CC2)c1` [roflumilast]?
**A.** effect on lung inflammation and emphysema [1]: inhibits lung inflammation and emphysema; reduction of the numbers of neutrophils in sputum (COPD patients; COPD patients, oral, given over 4 weeks): 36%; improvement of FEV 1 (COPD patients; [2]): approximately 50 mL; reduction of exacerbation (COPD patients; [2]): about 15%
